Reference: article PMC4398322, “Snake neurotoxin α-bungarotoxin is an antagonist at native GABAA receptors” (Neuropharmacology, 2015)

Columns and labels:
α2β2γ2 GABAARs = molecular target: T1, α2β2γ2 GABAARs (Mus musculus, UniProt P22723+P26048+P63137); type: binding, murine
T1 construct: expressed in transfected cells; host or cells: HEK-293
Description: (§1) Murine GABAAR α1-6, β1-3, γ2 and δ cDNAs subcloned into pRK-5 and pEGFP-C1 have been described previously ([Mortensen et al., 2011]).
(§2) Cells were transfected with equimolar ratios of cDNAs encoding for α1–6, β1–3 and δ or γ2 GABAA receptor subunits along with eGFP using a calcium phosphate method ([Mortensen et al., 2011]) 15–45 min after plating.
Live transfected HEK-293 cells were studied 48 h after transfection and washed with Krebs to remove cell culture media and incubated in 400 nM α-Bgtx coupled with Alexa Fluor 555 (α-Bgtx-AF555; Life Technologies) for 10 min at room temperature (RT). Cells were washed and fixed in 4% paraformaldehyde (PFA; Sigma) for 10 min at RT. The cells were imaged immediately post-fixation in saline using a Zeiss LSM 510 Meta confocal microscope and an Achroplan x40 water DIC objective (NA 0.8) as described previously ([Hannan et al., 2012]). This involved choosing the optimal z-section and acquiring images as a mean of 4 scans in 16-bits using a 543 nm Helium–Neon laser and a 560 nm long-pass filter for α-Bgtx-AF555 and a 488 Argon laser with a 505–530 nm band-pass filter for eGFP.
Confocal images were analysed using ImageJ (version 1.410) as described previously ([Hannan et al., 2013]). For each cell the surface membrane was identified by drawing a region-of-interest (ROI) in the eGFP channel and this was transferred to the α-Bgtx-AF555 channel and the mean membrane fluorescence values were determined. Mean background fluorescence was determined from a region devoid of cells. This was subtracted from the mean membrane fluorescence providing a mean corrected fluorescence intensity value. These values, for different combinations of receptors and drugs, were graphically plotted using Origin.
To identify the location of the α-Bgtx binding site on GABAARs, we pre-incubated HEK-293 cells expressing α2β2γ2 with a range of ligands that act at GABAARs and nAChRs, for 5 min at RT followed by co-incubation with α-Bgtx-AF555 for 10 min at RT (Fig. 4A). These ligands were selected to ‘protect by binding occupancy’ known binding site domains on GABAARs and nAChRs.
A, Schematic of the experimental protocol. 48 hrs after transfection, HEK-293 cells expressing eGFP and α2β2γ2 were incubated in drug for 5 min at RT followed by the addition of drug +400 nM α-Bgtx-AF555 for 10 min at RT to label cell surface receptors. The cells were washed to remove the excess α-Bgtx-AF555, fixed and imaged. B, Images of cells expressing α2β2γ2, stained with α-Bgtx-AF555 in the presence of 1 mM d-Tc, 1 mM nicotine, or 1 mM carbachol. C, Mean cell surface fluorescence of α-Bgtx-AF555 bound to surface GABAARs in the presence of d-Tc, nicotine or carbachol. […] Scale bars 5 μm.

α2β2 receptors = molecular target: T2, α2β2 receptors (Mus musculus, UniProt P26048+P63137); assay: Whole-cell GABA-activated currents in transfected HEK-293 cells (patch clamp); type: cell-based, murine
T2 construct: expressed in transfected cells; host or cells: HEK-293
Description: as §1, §2
(§3) Whole-cell GABA-activated currents were recorded from transfected HEK-293 cells or hippocampal neurons in culture at 12–14 DIV using patch clamp electrophysiology. Patch electrodes had resistances of 4–5 MΩ and were filled with an internal solution containing (mM): 120 CsCl 1 MgCl2, 11 EGTA, 30 KOH, 10 HEPES, 1 CaCl2, and 2 K2ATP; pH – 7.2. HEK-293 cells were superfused with a saline solution containing (mM): 140 NaCl, 4.7 KCl, 1.2 MgCl2, 2.52 CaCl2, 11 Glucose, and 5 HEPES; pH 7.4. The saline for recording from primary neurons was supplemented with 2 mM kynurenic acid and pH adjusted to 7.4 to block all spontaneous excitatory post-synaptic currents (EPSCs). Membrane currents were filtered at 5 kHz (−3 dB, 6th pole Bessel, 36 dB/octave). HEK-293 cells were studied 48 h after transfection by voltage clamping cells at a holding potential of −20 to −40 mV with optimised series resistance (Rs, <10 MΩ) and whole-cell membrane capacitance compensation. Neuronal membrane currents were similarly recorded at a holding potential of −60 mV.

α2β2γ2 GABAAR = molecular target: T3, α2β2γ2 GABAAR (Mus musculus, UniProt P22723+P26048+P63137); assay: as above; type: cell-based, murine
T3 construct: expressed in transfected cells; host or cells: HEK-293
Description: as §1, §2
as §3, with “Patch” for “Whole-cell GABA-activated currents were recorded from transfected HEK-293 cells or hippocampal neurons in culture at 12–14 DIV using patch clamp electrophysiology. Patch”
(§4) Spontaneous inhibitory postsynaptic currents (IPSCs) were recorded from dentate gyrus granule cells (DGGCs) with the same internal solution as above. Cells were voltage clamped at −60 mV and IPSCs were recorded using 5 kHz filtering with optimal series resistance and whole-cell capacitance compensation.

[1] = system: dentate gyrus granule cells (DGGCs); assay: Tonic inhibition (holding current, RMS noise) in dentate gyrus granule cells of acute hippocampal slices; type: cell-based, mouse; conditions: 1 nM MLA
Description: (§5) Acute transverse brain slices were prepared from adult (P115–125) male C57BL/6J mice in accordance with the UK Animals (Scientific Procedures) Act 1986.
(§6) The brain was rapidly removed after terminal anaesthesia with isoflurane and immersed in ice-cold slicing solution composed of (mM): 85 NaCl, 2.5 KCl, 1 CaCl2, 4 MgCl2, 1.25 NaH2PO4, 26 NaHCO3, 75 sucrose, and 25 glucose, 2 kynurenic acid, pH – 7.4. The slicing solution was continuously bubbled with 95% […] and 5% CO2. Transverse 250 μm slices containing the ventral hippocampus were cut with a Leica VT1200S vibroslicer. The slicing solution was exchanged at 37 °C for 60 min with a recording solution containing (mM): 125 NaCl, 2.5 KCl, 2 CaCl2, 1 MgCl2, 1.25 NaH2PO4, 26 NaHCO3, 2 kynurenic acid, and 25 glucose, pH 7.4.
For tonic inhibition, to determine the average holding currents, a 60 s continuous current recording was sampled every 1 s, discarding epochs that coincided with IPSCs. Any effect of drugs on the holding current was defined by subtracting the average holding currents in control and during drug application.
The baseline noise (RMS) was calculated before and during drug treatment. This was estimated from a continuous (30 s) current recording, sampled every 100 ms. The median current was calculated every 5 s and values more than twice the standard deviation from the median (usually due to IPSCs) were eliminated. Baseline GABA-mediated current noise was defined by subtracting RMS values before and after drugs, e.g., α-Bgtx or bicuculline.

[2] = system: native hippocampal GABAARs; type: cell-based, rat
Description: Dissociated hippocampal neurons were prepared from embryonic day 18 rat pups as described ([Hannan et al., 2012]). Briefly, hippocampi were dissected in ice-cold Hank's Balanced Salt Solution (HBSS) (Ca^2+/Mg^2+ free) before enzymatic dissociation in 0.1% (w/v) trypsin at 37 °C for 10 min followed by serial washes in pre-warmed HBSS to remove trypsin prior to trituration. Cells were mechanically dissociated using fire-polished glass Pasteur pipettes in plating medium composed of minimal essential medium (MEM) supplemented with 5% (v/v) fetal calf serum (FCS), 5% (v/v) horse serum, penicillin-G and streptomycin (200 units/ml and 200 μg/ml), 2 mM L-glutamine and 35 mM glucose. Cells were plated at a density of 10^6 per ml in plating medium on glass cover-slips previously coated with poly-D-lysine. The neurons were grown and maintained at 37 °C in a humidified 95% air/5% CO2 atmosphere.
After plating (30 min), the medium was removed and replaced with maintenance medium composed of Neurobasal-A supplemented with 1% (v/v) B-27, penicillin-G and streptomycin (100 units/ml and 100 μg/ml), 0.5% (v/v) Glutamax and 35 mM glucose.
as §3, with “Patch” for “Whole-cell GABA-activated currents were recorded from transfected HEK-293 cells or hippocampal neurons in culture at 12–14 DIV using patch clamp electrophysiology. Patch”
as §4

[3] = system: dentate gyrus granule cells (DGGCs); assay: Spontaneous IPSCs in dentate gyrus granule cells of acute hippocampal slices; type: cell-based, mouse; conditions: 1 nM MLA, P > 0.05
Description: as §5, §6, §4
IPSCs were detected and analysed using WinEDR and WinWCP (John Dempster, University of Strathclyde, UK). IPSC frequency was calculated using events detected over 60 s epochs of recording. […] This function provided the Gaussian mean amplitude current (μ) and standard deviation (σ). All the distributions were fitted using this function in Origin (Ver 6). The accuracy of the fits was checked by repeating the iterative non-linear fitting procedure after substituting the best-fit parameters obtained for the control and α-Bgtx datasets with new values.

α4β2δ receptors = molecular target: T4, α4β2δ receptors (Mus musculus, UniProt P22933+P63137+Q9D6F4); assay: Whole-cell GABA-activated and leak currents in transfected HEK-293 cells (patch clamp); type: cell-based, murine; conditions: 300 μM THIP
T4 construct: expressed in transfected cells; host or cells: HEK-293
Description: as §1, §2
as §3, with “Patch” for “Whole-cell GABA-activated currents were recorded from transfected HEK-293 cells or hippocampal neurons in culture at 12–14 DIV using patch clamp electrophysiology. Patch”
as §4

T1 sequence (P26048 29-451): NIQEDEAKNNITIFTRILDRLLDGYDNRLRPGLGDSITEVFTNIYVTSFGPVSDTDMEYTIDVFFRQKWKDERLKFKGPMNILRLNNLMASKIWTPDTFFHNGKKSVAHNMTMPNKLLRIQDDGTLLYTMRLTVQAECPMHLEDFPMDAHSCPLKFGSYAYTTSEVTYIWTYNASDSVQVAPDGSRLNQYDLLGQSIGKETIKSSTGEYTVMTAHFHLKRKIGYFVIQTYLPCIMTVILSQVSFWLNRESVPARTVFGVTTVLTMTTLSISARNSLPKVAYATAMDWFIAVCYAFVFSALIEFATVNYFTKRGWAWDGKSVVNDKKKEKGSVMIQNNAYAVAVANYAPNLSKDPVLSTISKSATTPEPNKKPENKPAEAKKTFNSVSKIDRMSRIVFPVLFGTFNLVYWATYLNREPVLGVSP
T1 sequence (P63137 25-512): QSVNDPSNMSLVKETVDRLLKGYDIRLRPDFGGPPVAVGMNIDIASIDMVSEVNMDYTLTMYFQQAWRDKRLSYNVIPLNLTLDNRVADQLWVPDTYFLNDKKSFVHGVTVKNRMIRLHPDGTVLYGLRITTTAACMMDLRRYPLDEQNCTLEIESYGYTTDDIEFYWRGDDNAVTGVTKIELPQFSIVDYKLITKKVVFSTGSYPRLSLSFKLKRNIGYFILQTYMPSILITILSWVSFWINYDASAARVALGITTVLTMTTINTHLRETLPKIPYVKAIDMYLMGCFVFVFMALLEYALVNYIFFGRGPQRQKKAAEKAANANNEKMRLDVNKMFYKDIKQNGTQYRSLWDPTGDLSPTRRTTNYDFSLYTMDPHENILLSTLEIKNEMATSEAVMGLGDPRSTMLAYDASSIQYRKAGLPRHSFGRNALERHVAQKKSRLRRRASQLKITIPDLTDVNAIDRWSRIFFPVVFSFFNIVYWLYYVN
T1 sequence (P22723 39-474): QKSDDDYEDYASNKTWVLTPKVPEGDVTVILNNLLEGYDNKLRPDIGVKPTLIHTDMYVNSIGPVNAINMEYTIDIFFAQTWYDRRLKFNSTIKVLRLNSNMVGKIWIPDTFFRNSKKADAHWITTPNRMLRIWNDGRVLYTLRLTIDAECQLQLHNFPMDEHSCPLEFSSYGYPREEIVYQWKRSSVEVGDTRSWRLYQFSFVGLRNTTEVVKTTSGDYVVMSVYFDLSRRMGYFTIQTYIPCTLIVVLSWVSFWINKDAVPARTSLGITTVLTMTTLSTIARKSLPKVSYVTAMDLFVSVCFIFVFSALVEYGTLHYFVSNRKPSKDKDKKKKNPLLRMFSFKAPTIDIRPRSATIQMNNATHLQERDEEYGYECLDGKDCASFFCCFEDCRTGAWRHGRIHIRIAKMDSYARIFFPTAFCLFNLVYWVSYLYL
T3 sequence (P63137 25-512): as the sequence (P63137 25-512) above
T3 sequence (P26048 29-451): as the sequence (P26048 29-451) above
T3 sequence (P22723 39-474): as the sequence (P22723 39-474) above
T4 sequence (P22933 17-449): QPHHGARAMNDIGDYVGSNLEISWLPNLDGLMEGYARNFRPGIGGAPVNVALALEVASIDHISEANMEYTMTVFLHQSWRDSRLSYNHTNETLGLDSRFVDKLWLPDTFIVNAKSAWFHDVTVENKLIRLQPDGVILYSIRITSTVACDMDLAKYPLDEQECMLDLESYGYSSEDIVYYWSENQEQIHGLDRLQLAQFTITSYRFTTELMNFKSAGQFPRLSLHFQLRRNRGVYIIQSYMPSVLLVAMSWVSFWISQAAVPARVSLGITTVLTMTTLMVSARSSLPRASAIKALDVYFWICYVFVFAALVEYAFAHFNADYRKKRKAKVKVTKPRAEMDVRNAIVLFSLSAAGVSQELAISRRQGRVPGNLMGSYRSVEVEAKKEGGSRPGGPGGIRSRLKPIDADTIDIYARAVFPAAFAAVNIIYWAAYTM
T4 sequence (P63137 25-512): as the sequence (P63137 25-512) above
T4 sequence (Q9D6F4 36-552): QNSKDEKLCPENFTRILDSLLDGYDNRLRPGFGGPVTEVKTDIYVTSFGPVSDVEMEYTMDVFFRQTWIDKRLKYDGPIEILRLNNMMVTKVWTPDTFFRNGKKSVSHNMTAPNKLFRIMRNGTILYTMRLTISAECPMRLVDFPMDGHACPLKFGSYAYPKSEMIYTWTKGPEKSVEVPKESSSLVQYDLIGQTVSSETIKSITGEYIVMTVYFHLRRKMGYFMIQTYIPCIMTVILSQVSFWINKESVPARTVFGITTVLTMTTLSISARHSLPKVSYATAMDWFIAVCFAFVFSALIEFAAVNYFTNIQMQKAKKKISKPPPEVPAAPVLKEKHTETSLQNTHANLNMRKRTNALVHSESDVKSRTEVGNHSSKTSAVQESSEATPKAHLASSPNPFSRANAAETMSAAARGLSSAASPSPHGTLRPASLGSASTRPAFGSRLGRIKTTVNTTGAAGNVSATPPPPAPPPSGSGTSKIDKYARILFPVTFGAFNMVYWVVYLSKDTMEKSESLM
T2 sequence (P26048 29-451): as the sequence (P26048 29-451) above
T2 sequence (P63137 25-512): as the sequence (P63137 25-512) above

For `CN1CCC[C@H]1c1cccnc1` [nicotine], the “α-Bgtx-AF555 binding in presence of ligand” value (α2β2γ2 GABAARs) was 90.5 ± 11.4 % of control.

With `[Zn+2]` [Zn^2+] the “inhibition of submaximal GABA currents by Zn^2+” value (α2β2 receptors) was 90.8 ± 4.44% and the “inhibition of submaximal GABA currents by Zn^2+” value (α2β2γ2 GABAAR) was 37.4 ± 8.9%.

With picrotoxin the “α-Bgtx-AF555 binding in presence of ligand” value (α2β2γ2 GABAARs) was 106.7 ± 14.9 % of control.

In the case of `CCN1C[C@]2(COC(=O)c3ccccc3N3C(=O)C[C@H](C)C3=O)CC[C@H](OC)[C@@]34[C@@H]5C[C@H]6[C@H](OC)[C@@H]5[C@](O)(C[C@@H]6OC)[C@@](O)([C@@H](OC)[C@H]23)[C@@H]14` [MLA, methyllaconitine], the “effect on amplitude of GABA-activated currents” value (α2β2γ2 GABAAR; 1 nM MLA pre-applied 1 min before co-application with GABA) is reported as “did not affect the amplitude”, the DGGC holding current [1] is reported as “slightly reduced” and the “effect on currents activated by sub-maximal GABA” value [2] is reported as < 1 % of control. The “inhibition of GABA-activated currents” value ([2]; 10 μM GABA, 1 nM MLA, 1 min pre-incubation then co-applied, n = 6, P > 0.05) was 0.8 ± 1.7 % inhibition, the “frequency of IPSCs” value ([3]; n = 5, control 4.12 ± 0.9 Hz) was 3.75 ± 1.2 Hz and the “median IPSC amplitude” value ([3]; n = 6098 events, control −30.82 pA) was −30.21 pA.

For `Oc1noc2c1CCNC2` [THIP], the “response compared with maximal GABA (1 mM)” value (α4β2δ receptors) was “superagonist ability”.
